This is an account of results in ChEMBL document CHEMBL1136101, “An evaluation of a C-glucuronide as a liver targeting group: conjugate of a glucocorticoid antagonist” (Bioorg Med Chem Lett, 2003).

Each structure is given as a SMILES string.

For series [1], the target named is T1, Glucocorticoid receptor (Rattus norvegicus, UniProt P06536).
T1 sequence (P06536 whole entry): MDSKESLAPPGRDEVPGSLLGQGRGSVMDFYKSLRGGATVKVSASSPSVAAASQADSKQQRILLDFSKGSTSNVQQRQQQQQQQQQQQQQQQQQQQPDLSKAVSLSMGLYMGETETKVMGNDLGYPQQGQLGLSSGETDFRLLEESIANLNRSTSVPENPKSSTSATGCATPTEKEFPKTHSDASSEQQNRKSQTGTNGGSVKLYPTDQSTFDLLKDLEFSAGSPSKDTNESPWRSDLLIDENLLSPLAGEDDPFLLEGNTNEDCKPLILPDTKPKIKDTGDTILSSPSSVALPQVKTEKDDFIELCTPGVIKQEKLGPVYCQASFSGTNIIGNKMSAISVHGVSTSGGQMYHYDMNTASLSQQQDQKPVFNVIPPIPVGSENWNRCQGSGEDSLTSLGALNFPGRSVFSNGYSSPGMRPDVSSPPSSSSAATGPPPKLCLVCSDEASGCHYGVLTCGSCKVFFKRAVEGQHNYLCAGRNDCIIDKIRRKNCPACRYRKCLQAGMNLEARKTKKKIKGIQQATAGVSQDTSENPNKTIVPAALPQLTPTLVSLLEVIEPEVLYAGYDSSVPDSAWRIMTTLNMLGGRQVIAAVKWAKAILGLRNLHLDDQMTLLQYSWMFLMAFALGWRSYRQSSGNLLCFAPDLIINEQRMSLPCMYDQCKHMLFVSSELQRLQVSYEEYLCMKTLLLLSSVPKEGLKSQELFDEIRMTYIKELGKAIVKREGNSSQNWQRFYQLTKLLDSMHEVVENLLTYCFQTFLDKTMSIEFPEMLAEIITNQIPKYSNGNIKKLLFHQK
As to the kind of experiment: Inhibition of prednisilone-induced tyrosine aminotransferase (TAT) activity in rat hepatocytes. Type of series: cell-based, Hepatocyte.

Series [2] in a line: Plasma concentration at 7 hr after intravenous dosing. Type of series: ADME.
Series [3] is described as follows: Half-life period was determined. It counts as ADME.
The target in series [4] is T2, Glucocorticoid receptor (Homo sapiens, UniProt P04150).
T2 sequence (P04150 whole entry): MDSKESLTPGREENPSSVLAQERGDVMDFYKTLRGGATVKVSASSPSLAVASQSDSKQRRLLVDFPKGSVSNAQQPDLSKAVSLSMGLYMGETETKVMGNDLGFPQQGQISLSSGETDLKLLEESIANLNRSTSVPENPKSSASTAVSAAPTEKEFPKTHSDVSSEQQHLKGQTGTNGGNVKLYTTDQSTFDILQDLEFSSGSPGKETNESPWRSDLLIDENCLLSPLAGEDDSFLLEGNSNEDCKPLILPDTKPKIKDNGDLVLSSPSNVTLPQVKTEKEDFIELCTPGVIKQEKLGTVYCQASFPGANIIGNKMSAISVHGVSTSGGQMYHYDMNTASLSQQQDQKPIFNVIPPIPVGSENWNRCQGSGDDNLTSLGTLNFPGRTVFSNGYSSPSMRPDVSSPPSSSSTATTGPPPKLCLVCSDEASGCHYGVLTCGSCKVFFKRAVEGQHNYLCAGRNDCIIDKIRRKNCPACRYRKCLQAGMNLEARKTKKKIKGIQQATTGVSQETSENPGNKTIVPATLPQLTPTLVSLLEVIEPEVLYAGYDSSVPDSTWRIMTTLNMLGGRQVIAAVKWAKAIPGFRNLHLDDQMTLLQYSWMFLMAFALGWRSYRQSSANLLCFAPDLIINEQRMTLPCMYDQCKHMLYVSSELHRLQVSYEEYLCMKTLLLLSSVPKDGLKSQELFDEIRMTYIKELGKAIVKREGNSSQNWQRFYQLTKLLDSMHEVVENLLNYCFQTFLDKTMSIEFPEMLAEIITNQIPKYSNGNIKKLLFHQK
Kind of series: Inhibition of Dexamethasone binding to Glucocorticoid receptor.

The target in series [5] is T2, Glucocorticoid receptor. Kind of series: Inhibition of Dexamethasone stimulated transcriptional activity in CHO cells expressing glucocorticoid receptor. It counts as functional, cell-based.
The nature of series [6]: Plasma clearance by iv administration at a dose 5 mg/kg. Conditions: read-out: Clp (converted).

As to `CC#C[C@]1(O)CC[C@H]2[C@@H]3CCC4=CC(=O)CCC4=C3[C@@H](c3ccc(N(C)CCCC4OC(C(=O)O)C(O)C(O)C4O)cc3)C[C@@]21C` (stereo partly specified), the IC50 worked out at 2800 nM against Glucocorticoid receptor [1], 16.7 nM on Glucocorticoid receptor [4] and 550 nM on Glucocorticoid receptor [5]. This molecule registered a concentration at 7 h in series [2] of 3 ng/mL. Further, in series [3], the half-life was 1.8 h. In addition, the clearance in series [6] is 88.3 mL/min/kg.
